Measurements taken from the NIST ThermoML archive (doi:10.1016/j.jct.2017.03.026).
Where “and” joins values, the source holds several entries; their conditions need not be identical. Equal values may be shown once.

Experiment: molar heat capacity at constant pressure
Conditions: 101.33 kPa, Crystal, Small (less than 1 g) adiabatic calorimetry

O.O.O.O.O.O=S(=O)([O-])[O-].[Cu+2] [copper(II) sulfate pentahydrate]
Conditions | molar heat capacity at constant pressure
4.261 K | 0.5156 J/K/mol
4.305 K | 0.5483 J/K/mol
4.311 K | 0.5046 J/K/mol
4.335 K | 0.5159 J/K/mol
4.395 K | 0.5368 J/K/mol
4.524 K | 0.5196 J/K/mol
4.539 K | 0.5173 J/K/mol
4.569 K | 0.4829 J/K/mol
4.583 K | 0.5241 J/K/mol
4.777 K | 0.4969 J/K/mol
4.798 K | 0.4984 J/K/mol
4.823 K | 0.4929 J/K/mol
4.824 K | 0.4432 J/K/mol
4.978 K | 0.5029 J/K/mol
5 K | 0.4962 J/K/mol
5.069 K | 0.4964 J/K/mol
5.082 K | 0.4427 J/K/mol
5.104 K | 0.4944 J/K/mol
5.177 K | 0.4896 J/K/mol
5.342 K | 0.4946 J/K/mol
5.372 K | 0.4889 J/K/mol
5.378 K | 0.4929 J/K/mol
5.56 K | 0.4939 J/K/mol
5.621 K | 0.4969 J/K/mol
5.651 K | 0.4969 J/K/mol
5.749 K | 0.4906 J/K/mol
5.9 K | 0.5111 J/K/mol
5.914 K | 0.4479 J/K/mol
5.925 K | 0.5016 J/K/mol
5.937 K | 0.4989 J/K/mol
6.172 K | 0.5019 J/K/mol
6.291 K | 0.5248 J/K/mol
6.303 K | 0.5186 J/K/mol and 0.4587 J/K/mol
6.448 K | 0.5358 J/K/mol
6.726 K | 0.5553 J/K/mol
6.774 K | 0.5665 J/K/mol
6.778 K | 0.5585 J/K/mol
6.783 K | 0.4881 J/K/mol
7.002 K | 0.5855 J/K/mol
7.249 K | 0.6135 J/K/mol
7.254 K | 0.6117 J/K/mol
7.273 K | 0.6282 J/K/mol
7.547 K | 0.6634 J/K/mol
7.713 K | 0.7001 J/K/mol
7.723 K | 0.6939 J/K/mol
7.725 K | 0.6355 J/K/mol
7.824 K | 0.7166 J/K/mol
8.096 K | 0.7788 J/K/mol
8.182 K | 0.7853 J/K/mol
8.189 K | 0.786 J/K/mol
8.19 K | 0.7356 J/K/mol
8.371 K | 0.8474 J/K/mol
8.632 K | 0.9011 J/K/mol
8.65 K | 0.9014 J/K/mol and 0.8412 J/K/mol
8.653 K | 0.8934 J/K/mol
8.928 K | 0.968 J/K/mol
9.09 K | 1.043 J/K/mol
9.107 K | 0.9518 J/K/mol
9.116 K | 1.028 J/K/mol
9.204 K | 1.057 J/K/mol
9.48 K | 1.134 J/K/mol
9.555 K | 1.149 J/K/mol
9.563 K | 1.103 J/K/mol
9.583 K | 1.165 J/K/mol
9.756 K | 1.2 J/K/mol
10 K | 1.299 J/K/mol
10.02 K | 1.297 J/K/mol and 1.25 J/K/mol
10.03 K | 1.306 J/K/mol
10.05 K | 1.315 J/K/mol
10.4 K | 1.456 J/K/mol
10.7 K | 1.569 J/K/mol
10.71 K | 1.536 J/K/mol
10.77 K | 1.6 J/K/mol
10.86 K | 1.634 J/K/mol
11.32 K | 1.835 J/K/mol
11.62 K | 1.99 J/K/mol
11.63 K | 1.944 J/K/mol
11.7 K | 2.014 J/K/mol
11.78 K | 2.059 J/K/mol
